The nature of series [1]: Excretion after an oral dose of abiraterone acetate (literature). Type of series: in vivo. To be noted: feces plus urine. From the text:
Due to highly lipophilic nature and poor aqueous solubility in the gastrointestinal tract, the oral bioavailability of abiraterone acetate is limited. After an oral dose of abiraterone acetate, 88% of the administered drug gets excreted unchanged through feces, and another 5% is excreted in the urine (Ryan C J et al., J ClinOncol. 2010; 28(9):1481-1488). Therefore, >90% of the administered drug gets excreted and is not used for its intended treatment. […] As a result, Zytiga® must be taken on an empty stomach with water at least […] a meal. There is a need for developing new pharmaceutical compositions for abiraterone acetate that improve bioavailability in the fasted state to in turn reduce the food effect and overall variability in absorption.

The conditions of series [2]: after an oral dose; cited from earlier work.

The values below come from US20220387451A1, “AMORPHOUS PHARMACEUTICAL COMPOSITIONS OF ABIRATERONE ACETATE” (SUVEN LIFE SCIENCES LIMITED, priority 2019, published 2022).

Regarding `CC(=O)O[C@H]1CC[C@@]2(C)C(=CC[C@@H]3[C@@H]2CC[C@]2(C)C(c4cccnc4)=CC[C@@H]32)C1` [Abiraterone acetate], the administered drug excreted in series [1] is on record as more than 90%. Moreover, in series [2], the “administered drug excreted in the urine” value is 5% and the “administered drug excreted unchanged through feces” value is 88%.
